These are literature values, as cited in patent US20230330068A1, “GEL COMPOSITION OF LULICONAZOLE FOR TREATMENT OF VAGINAL FUNGAL INFECTIONS AND ITS MANUFACTURING PROCESS” (priority 2023, published 2023).

The test system of this data set is Candida. Conditions: anticandidal activity; recent findings from the literature.

With `N#C/C(=C1/SC[C@@H](c2ccc(Cl)cc2Cl)S1)n1ccnc1` [Luliconazole], the “minimum inhibitory concentration (MIC) range” value was 31 to 130 µg/mL.
